Where a name gives a salt, the structure may show the parent alone.
How the values were obtained:
[1] = biological target: T1, human norepinephrine transporter (hNET) (Homo sapiens, UniProt P23975); experiment: hNET uptake, Protocol B: cell based norepinephrine reuptake assay using recombinant hNET (MDCK-Net6 cells); settings: hNET Function IC50 (nM), protocol not stated
[2] = biological target: Dopamine Transporter (hDAT) (Homo sapiens, UniProt Q01959); experiment: Dopamine transporter (hDAT) membrane binding assay, [3H]-WIN 35,428
Dopamine Transporter (hDAT), sequence (Q01959 whole entry): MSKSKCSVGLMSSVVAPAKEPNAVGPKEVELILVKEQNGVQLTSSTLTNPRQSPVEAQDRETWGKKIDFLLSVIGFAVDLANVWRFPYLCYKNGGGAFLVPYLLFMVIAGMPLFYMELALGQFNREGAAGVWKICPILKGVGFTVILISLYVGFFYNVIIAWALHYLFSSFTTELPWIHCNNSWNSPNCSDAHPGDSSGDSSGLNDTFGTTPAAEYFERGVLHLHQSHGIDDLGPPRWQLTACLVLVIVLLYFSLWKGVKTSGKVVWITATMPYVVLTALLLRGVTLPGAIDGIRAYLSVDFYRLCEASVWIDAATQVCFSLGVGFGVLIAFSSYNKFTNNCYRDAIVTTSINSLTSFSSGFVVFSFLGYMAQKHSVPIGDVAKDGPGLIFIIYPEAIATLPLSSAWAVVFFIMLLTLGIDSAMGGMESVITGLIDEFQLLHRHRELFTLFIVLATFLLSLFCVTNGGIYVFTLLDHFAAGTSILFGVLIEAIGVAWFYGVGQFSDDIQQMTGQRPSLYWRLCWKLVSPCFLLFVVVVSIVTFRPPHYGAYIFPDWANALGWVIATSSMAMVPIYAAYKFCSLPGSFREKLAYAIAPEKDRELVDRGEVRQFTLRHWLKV

[3] = Rat liver microsomal stability assay; format: in vitro ADME; settings: pH 7.4; rat liver microsomes, 37° C., NADPH; read-out: RLM stability t1/2
[4] = biological target: T1, human norepinephrine transporter (hNET); experiment: hNET uptake, Protocol A: inhibition of [3H] NE uptake into cloned human NE transporters (MDCK cells); format: cell-based; set-up: expressed in transfected cells; host or cells: MDCK-Net6 cells; settings: for IC50: MDCK cells expressing hNET, [3H] NE 16 nM; for inhibition at 2 µM: MDCK, read-out: NE uptake (Protocol A) % inh. @ 2 uM
Description: hNET Assay Procedure Protocol A: Inhibition of [^3H] NE Uptake into Cloned Human NE Transporters (MDCK Cells) (“hNET uptake”)
[^3H] […] Cells were seeded at 300,000/T75 flask, and split twice weekly.
All uptake experiments were performed in 96-well plates (Falcon Optilux, cat #353947) in a total volume of 250 μl/well. MDCK cells were plated at 50,000 cells/well. […] 25 μl of each test compound was subsequently added to plates in triplicate and incubated at 37° C. for 5 minutes. All test compounds were dissolved in 100% DMSO and diluted in 4% DMSO/H2O, and assayed using a 7-point dose response curve (1 nM-10 μM). Next, 25 μl of [^3H] NE (74.9 Ci/mmol, Perkin Elmer, Boston, Mass.) was added to all wells and incubated at 37° C. for an additional 5 minutes. Non-specific uptake was defined by 20 μM desipramine. The final concentrations of [^3H] NE was 16 nM, respectively. The reaction was terminated by aspiration and washed with ice cold 50 mM Tris (pH 7.4). The plates were left to air dry for roughly 30 min, and MDCK cells were lysed by the addition of 25 μl of 0.25 M NaOH. 100 μl of Microscint-20 were added to each well (Packard, Perkin Elmer, Boston, Mass.), and the plates were counted using a TopCount (Perkin Elmer, Downer's Grove, Ill.) liquid scintillation counter.
% Inhibition of uptake=((mean cpm control wells−each cpm drug well)/(mean cpm control wells−non-specific wells)×100.
IC50 values were calculated using a Prism® nonlinear regression program where % inhibition is plotted versus concentration of inhibitor.

hNET = hNET (Homo sapiens, UniProt P23975); experiment: hNET binding according to Mahaney et al.; settings: printed in the Protocol B column with footnote
hNET, sequence (P23975 whole entry): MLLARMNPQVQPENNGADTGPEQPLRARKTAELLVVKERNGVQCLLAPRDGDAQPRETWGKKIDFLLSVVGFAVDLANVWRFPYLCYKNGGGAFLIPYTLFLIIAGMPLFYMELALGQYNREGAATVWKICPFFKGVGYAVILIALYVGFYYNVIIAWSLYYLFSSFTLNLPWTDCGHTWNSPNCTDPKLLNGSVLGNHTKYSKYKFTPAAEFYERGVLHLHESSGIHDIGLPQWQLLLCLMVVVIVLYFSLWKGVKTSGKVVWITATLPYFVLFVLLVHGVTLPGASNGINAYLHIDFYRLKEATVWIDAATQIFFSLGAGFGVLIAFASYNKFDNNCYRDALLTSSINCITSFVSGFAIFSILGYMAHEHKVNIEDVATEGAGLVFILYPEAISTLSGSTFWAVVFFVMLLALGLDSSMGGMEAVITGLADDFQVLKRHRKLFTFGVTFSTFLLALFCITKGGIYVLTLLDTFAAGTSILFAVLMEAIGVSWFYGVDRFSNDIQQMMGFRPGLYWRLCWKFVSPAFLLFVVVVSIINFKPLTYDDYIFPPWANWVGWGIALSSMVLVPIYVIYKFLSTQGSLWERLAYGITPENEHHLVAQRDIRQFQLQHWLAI

T1 sequence (P23975 whole entry): as above

| Compound | IC50 [1] [nM] | IC50 [2] [nM] | half-life at 1 µM [3] [min] | further results |
| --- | --- | --- | --- | --- |
| CNCCCN1c2ccccc2N(c2cc(F)ccc2F)S1(=O)=O [drawing 164] | 2.7 | 479 | 2 | – |
| NCCCCN1c2ccccc2N(c2ccc(Cl)cc2)S1(=O)=O [Example 19, 4-[3-(4-chlorophenyl)-2,2-dioxido-2,1,3-benzothiadiazol-1(3H)-yl]butan-1-amine] | – | – | – | IC50 [4]: 1130 nM |
| CCN(C)CCCCN1c2ccccc2N(c2ccc(Cl)cc2)S1(=O)=O [Example 23, 4-[3-(4-chlorophenyl)-2,2-dioxido-2,1,3-benzothiadiazol-1(3H)-yl]-ethyl-N-methylbutan-1-amine] | – | – | – | inhibition at 2 µM [4]: 28% |
| CNCCCN1c2ccccc2N(c2ccc(F)c(F)c2)S1(=O)=O [drawing 163] | 19.8 | 122 | 18 | – |
| CNCCCN1c2ccccc2N(c2ccccc2C)S1(=O)=O [drawing 168] | 7.06 | 276 | < 1 | – |
| CNCCCN1c2ccccc2N(c2ccccc2)S1(=O)=O [drawing 157] | 2.6 | 598 | 2 | – |
| CNCCCCN1c2ccccc2N(c2c(F)cccc2F)S1(=O)=O [drawing 162] | 2.3 | 9330 | 1 | – |
| NCCN1c2ccccc2N(c2ccc(Cl)cc2)S1(=O)=O [Example 54, 2-[3-(4-chlorophenyl)-2,2-dioxido-2,1,3-benzothiadiazol-1(3H)-yl]ethanamine] | – | – | – | inhibition at 2 µM [4]: 3% |
| CNCCCN1c2ccccc2N(c2cccc(F)c2C)S1(=O)=O [Example 10, 3-[3-(3-fluoro-2-methylphenyl)-2,2-dioxido-2,1,3-benzothiadiazol-1(3H)-yl]-N-methylpropan-1-amine] | – | – | – | IC50 [4]: 40.2 nM |
| CNCCCN1c2ccccc2N(c2cccc(OC)c2)S1(=O)=O [drawing 169] | 10.8 | 178 | 2 | – |
| CNCCCCN1c2ccccc2N(c2ccc(F)cc2)S1(=O)=O [drawing 167] | 46.1 | 52.8 | 19 | – |
| CNCCCCN1c2ccccc2N(c2ccc(Cl)cc2)S1(=O)=O [Example 20, 4-[3-(4-chlorophenyl)-2,2-dioxido-2,1,3-benzothiadiazol-1(3H)-yl]-N-methylbutan-1-amine] | – | – | – | IC50 [4]: 478 nM |
| NCCCN1c2ccccc2N(c2ccc(Cl)cc2)S1(=O)=O [Example 2, 3-[3-(4-chlorophenyl)-2,2-dioxido-2,1,3-benzothiadiazol-1(3H)-yl]propan-1-amine] | – | – | – | IC50 [4]: 2530 nM |
| CNCCN1c2ccccc2N(c2ccc(Cl)cc2)S1(=O)=O [Example 55, 2-[3-(4-chlorophenyl)-2,2-dioxido-2,1,3-benzothiadiazol-1(3H)-yl]-N-methylethanamine] | – | – | – | inhibition at 2 µM [4]: 15% |
| CCNCCCN1c2ccccc2N(c2ccc(Cl)cc2)S1(=O)=O [Example 4, 3-[3-(4-chlorophenyl)-2,2-dioxido-2,1,3-benzothiadiazol-1(3H)-yl]-N-ethylpropan-1-amine] | – | – | – | inhibition at 2 µM [4]: 37% |
| CNCCCN1c2ccccc2N(c2ccc(F)cc2F)S1(=O)=O [drawing 165] | 11.3 | 366 | 10 | – |
| CNCCCCN1c2ccccc2N(c2ccc(F)cc2F)S1(=O)=O | 8.4 | 449 | 11 | – |
| CCNCCCN1c2ccccc2N(c2ccccc2F)S1(=O)=O [drawing 170] | 2.56 | 665 | 1 | – |
| NCCCCCN1c2ccccc2N(c2ccc(F)cc2F)S1(=O)=O [Example 116, 5-[3-(2,4-difluorophenyl)-2,2-dioxido-2,1,3-benzothiadiazol-1(3H)-yl]pentan-1-amine hydrochloride] | – | – | – | IC50 (hNET): 679 nM |
| CNCCCCN1c2ccccc2N(c2ccccc2)S1(=O)=O [drawing 158] | 0.3 | 211 | 2 | – |
| CCCCNCCCCN1c2ccccc2N(c2ccc(Cl)cc2)S1(=O)=O [Example 22, n-butyl-4-[3-(4-chlorophenyl)-2,2-dioxido-2,1,3-benzothiadiazol-1(3H)-yl]butan-1-amine] | – | – | – | inhibition at 2 µM [4]: 27% |
| CN(C)CCCCN1c2ccccc2N(c2ccc(Cl)cc2)S1(=O)=O [Example 21, 4-[3-(4-chlorophenyl)-2,2-dioxido-2,1,3-benzothiadiazol-1(3H)-yl]-N,N-dimethylbutan-1-amine] | – | – | – | IC50 [4]: 5890 nM |
| O=S1(=O)N(CCCNC2CC2)c2ccccc2N1c1ccc(Cl)cc1 [Example 3, N-{3-[3-(4-chlorophenyl)-2,2-dioxido-2,1,3-benzothiadiazol-1(3H)-yl]propyl}cyclopropanamine] | – | – | – | IC50 [4]: 4220 nM |

From patent US20080161366A1, “AMINOALKYL SUBSTITUTED ARYL SULFAMIDE DERIVATIVES AND METHODS OF THEIR USE” (Wyeth, priority 2006, published 2008)
